Converted amounts (≈) assume the structure as drawn.
Experiment: Solubility in water at 25 °C (weight recovered undissolved and weight dissolved after stirring 5 hours)
Format: physicochemical
Conditions: for Weight Recovered: undissolved portion, 10 grams in 100 ml of water, 5 hours stirring; for solubility thermodynamic at 5 h: water, head prints 10 ml, text prints 100 ml
Description: Ten grams of Compound 1 of this invention and 10 grams of Comparative Compound (I) disclosed (as illustrative compound 3) in Japanese Patent Application No. 41221/78 for comparative purposes were each separately dissolved in 100 ml of water and stirred for 5 hours while maintaining a temperature of 25° C. The undissolved portion was recovered by filtration and the weight of the recovered material was determined after drying. Comparative Compound (I)
The weights of the compounds recovered and the amounts dissolved in 100 ml of water at 25° C. calculated on the basis of the weights recovered are shown in Table 1.

| solubility in water relative to Comparative Compound (I) (in words) | Weight Recovered | solubility thermodynamic at 5 h | Structure (SMILES) |
| --- | --- | --- | --- |
| much better solubility in water | 0 grams | > 100 mg/mL | C=CS(=O)(=O)C(CCc1ccc(S(=O)(=O)O)cc1)S(=O)(=O)C=C [Compound 1] |
| – | 8.0 grams | 20 mg/mL (≈ 61.7 mM) | C=CS(=O)(=O)CC(=O)NCCNC(=O)CS(=O)(=O)C=C [Comparative Compound (I), reference compound] |

Reference: patent publication US4897344A, “Method of hardening gelatin” (Fuji Photo Film Co., Ltd., priority 1987, dated 1990)
